Data published in patent US6870069B2, “Phenyloxyaniline derivatives” (National Institute of Radiological Sciences, priority 2003, dated 2005).

Legend:
[1] = target: T1, peripheral benzodiazepine receptor (PBR) (Rattus norvegicus, UniProt P16257); assay: In vitro affinity to PBR: displacement of [11C]DAA1106 binding on rat brain sections (autoradiography, olfactory bulb ROI); settings: for IC50: [11C]DAA1106 1 nM, rat brain sections, olfactory bulb, 37° C. 30 minutes, probit method
T1 construct: Sagittal sections of the rat were prepared using Crystat microtome; from tissue; host or cells: rat brain sagittal sections (ROI: olfactory bulb)
Method: Under anesthetization with ether, male Sprague-Dawley rats (250 to 300 g; n=4) were slaughtered and the brain was quickly cut and frozen in dry ice. Sagittal sections of the rat were prepared using Crystat microtome (MICROM HM560, Carl Zeiss GmbH, Germany). The sections were previously incubated in a 50 mM Tris buffer (pH=7.4) for 30 minutes. After that, the sections were taken out and again incubated at 37° C. for 30 minutes in 50 mM Tris buffer (pH=7.4) containing each of the following reagents at the same time.
After completion of the incubation, the section was taken out and dipped in an ice-cooled Tris buffer for 2 minutes twice. The section was dipped in ice-cooled distilled water and then dried. […] A region of interest (ROI) was defined as an olfactory bulb and radioactivity was expressed in terms of a photo-stimulated-luminescence (PSL)/mm^2 region. Specific binding of [^11C]DAA1106 in the presence of DAA1106, PK11156, FMDAA1106 and FEDAA1106 of various concentrations was determined and IC50 (nM) of those reagents was calculated by a probit method.

[2] = target: T2, central benzodiazepine receptor (CBR); assay: Affinity to CBR using [11C]flumazenil, a selective ligand for CBR; format: binding, rat; settings: [11C]flumazenil
T2 construct: IC50 CBR; other: [11C]flumazenil
Method: (§1) On the other hand, affinity of FMDAA1106 and FEDAA1106 to central benzodiazepine receptor (CBR) was determined (Table 1) using [^11C]flumazenil which is a selective ligand for CBR. As a result, affinity of FEDAA1106 and FMDAA1106 to CBR was not less than 10 μM and was about 10,000-fold weaker than the affinity of PBR. […] Incidentally, partition coefficients (log P) of the two ligands were measured by an octanol/water (pH 7.4) partition method.

[3] = Partition coefficient (log P) by octanol/water (pH 7.4) partition method; format: physicochemical
Method: as §1

[4] = tested on: central benzodiazepine receptor (CBR); assay: Affinity to CBR using [11C]flumazenil, a selective ligand for CBR; format: binding, rat; settings: CBR versus PBR selectivity
Method: as §1

SMILES	IC50 [1] [nM]	IC50 [2] [nM]	logP [3]	affinity to PBR as compared with DAA1106 ([1]; relative to DAA1106)	affinity to PBR as compared with PK11195 ([1]; relative to PK11195)	affinity to CBR weaker than the affinity of PBR [4]
COc1ccc(OC)c(CN(C(C)=O)c2cc(F)ccc2Oc2ccccc2)c1 [DAA1106, N-(2,5-dimethoxybenzyl)-N-(5-fluoro-2-phenoxyphenyl)acetamide, reference compound]	1.62	> 10000	3.65			
COc1ccc(OCCF)c(CN(C(C)=O)c2cc(F)ccc2Oc2ccccc2)c1 [FEDAA1106, N-[2-(2-fluoro)ethyl-5-methoxybenzyl]-N-(5-fluoro-2-phenoxyphenyl)acetamide]	0.77	> 10000	3.81	two-fold higher affinity	about ten-fold stronger affinity	about 10,000 fold
CCC(C)N(C)C(=O)c1cc2ccccc2c(-c2ccccc2Cl)n1 (stereo not shown) [PK11195, N-methyl-N-(1-methylpropyl)-1-(2-chlorophenyl)-isoquinoline-3-carboxamide, reference compound]		> 10000				
